# Reference: patent US6858638B2, “Substituted indazoles, compositions containing them, method of production and use” (Aventis Pharma S.A., priority 2002, dated 2005)
# How the values were obtained:
# Format in all cases: biochemical
# Aurora2 kinase = molecular target: T1, Aurora2 kinase (Homo sapiens, UniProt O14965); test: Aurora2 kinase radioactivity scintillation assay using nickel chelate (NuMA substrate); conditions: 10 μM; for inhibition at 10 µM: read-out: Aurora2 % inhib at 10 μM
# T1 construct: A complete recombinant Aurora2 enzyme; His tag (N); made in house; host or cells: E. coli
# T1 sequence (O14965 1-403): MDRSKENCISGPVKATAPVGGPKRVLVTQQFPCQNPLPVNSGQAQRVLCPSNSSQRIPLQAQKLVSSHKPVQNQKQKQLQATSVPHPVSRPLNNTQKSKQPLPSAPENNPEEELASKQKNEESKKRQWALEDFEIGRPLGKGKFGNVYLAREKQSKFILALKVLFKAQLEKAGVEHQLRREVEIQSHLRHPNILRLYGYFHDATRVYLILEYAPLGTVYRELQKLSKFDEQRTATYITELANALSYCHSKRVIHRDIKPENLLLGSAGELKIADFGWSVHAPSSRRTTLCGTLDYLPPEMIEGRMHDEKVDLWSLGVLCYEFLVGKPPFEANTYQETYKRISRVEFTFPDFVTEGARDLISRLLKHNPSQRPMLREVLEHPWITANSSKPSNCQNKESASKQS
# Description: The inhibitory effect of compounds with respect to the Aurora2 kinase is determined with a radioactivity scintillation assay using nickel chelate.
# A complete recombinant Aurora2 enzyme, the N-terminal end of which was labeled with histidine, was expressed in E. coli and purified to a quality close to homogeneity.
# The C-terminal fragment (Q1687-H2101) of a NuMA (Nuclear protein that associates with the Mitotic Apparatus) expressed in E. coli, and the N-terminal end of which was labeled with histidine, was purified by nickel chelate chromatography and used as substrate in the Aurora2 kinase assay. In order to determine the kinase activity, the NuMA substrate is equilibrated by chromatography on a Pharmacia PD10 column, in a buffer (50 mM Tris HCl, pH7.5, 50 mM NaCl, 10 mM MgCl2) to which 10% (v/v) of glycerol and 0.05% (w/v) of NP40 have been added.
# The kinase acivitity of Aurora2 is measured by scintillation with nickel chelate (New England Nuclear, model SMP107). Each well contains 100 μl of the following solution: 0.02 μM of Aurora2; 0.5 μM of NuMA substrate; 1 μM of ATP to which 0.5 μCi of ATP-[^33P] has been added. The solutions are incubated for 30 minutes at 37° C. The assay buffer is then removed and the wells are rinsed twice with 300 μl of kinase buffer. The radioactivity is measured in each well using a Packard Model Top Count NXT device.
# The background noise is deduced from the measurement of radioactivity by measuring, in duplicate, in wells containing the radioactive ATP alone containing buffered kinase treated in the same way as the other samples.
# The activity of the control is determined by measuring, in duplicate, the radioactivity in the complete assay mixture (ATP, Aurora2 and the NuMA substrate) in the absence of test compound.
# The inhibition of the Aurora2 with a compound of the invention is expressed as percentage inhibition of the control activity in the absence of test compound. Staurosporine is added to each plate as an inhibition control.
# [1] = molecular target: T2, human IGF1R cytoplasmic domain (Homo sapiens, UniProt P08069); test: IGF1R autophosphorylation inhibition, time resolved fluorescence (HTRF) assay; conditions: 10 μM; for inhibition at 10 µM: read-out: IGF1R % inhib at 10 μM
# T2 construct: The human IGF1R cytoplasmic domain was cloned; made in house; host or cells: SF21 insect cells (baculovirus)
# Description: The inhibitory activity of the compounds on IGF1R is determined by measuring the inhibition of the autophosphorylation of the enzyme using a time resolved fluorescence (HTRF) assay.
# The human IGF1R cytoplasmic domain was cloned, as a fusion with glutathione S-transferase (GST), into the baculovirus expression vector pFastBac-GST. The protein was expressed in SF21 cells and purified to approximately 80% homogeneity.
# The kinase activity was determined by incubating the enzyme with various concentrations of test compound in a 50 mM Hepes buffer, pH 7.5, containing 5 mM MnCl2, 50 mM NaCl, 3% glycerol, 0.025% Tween […] of ATP. The enzyme reaction is stopped by adding 100 mM Hepes buffer, pH 7.0, containing 0.4 M KF, 133 mM EDTA and 0.1% BSA containing an anti-GST antibody labeled with XL665 and an antiphosphotyrosine antibody conjugated to europium cryptate (Eu-K). The characteristics of the two fluorophores, XL-665 and Eu-K, are available in G. Mathis et al., Anticancer Research, 1997, 17, pages 3011-3014. The transfer of energy from the excited europium cryptate to the acceptor XL665 is proportional to the degree of autophosphorylation of IGF1R. The long-lived signal specific for XL-665 is measured in a Victor analyzer plate counter (Perkin-elmer). The inhibition of the IGF1R autophosphorylation activity with compounds of the invention is expressed as percentage inhibition compared to a control whose activity is measured in the absence of test compound.
# human FAK = molecular target: T3, human FAK (Homo sapiens, UniProt Q05397); test: FAK autophosphorylation inhibition, time resolved fluorescence (HTRF) assay; conditions: 10 μM (values without asterisk); for inhibition at 10 µM: read-out: FAK % inhib at 10 μM
# T3 construct: The complete cDNA of human FAK; made in house; host or cells: baculovirus expression system (vector pFastBac HTc)
# Description: The inhibitory activity of the compounds on FAK is determined by measuring the inhibition of the autophosphorylation of the enzyme using a time resolved fluorescence (HTRF) assay.
# The complete cDNA of human FAK, the N-terminal end of which was labeled with histidine, was cloned into a baculovirus expression vector pFastBac HTc. The protein was expressed and purified to approximately 70% homogeneity.
# The kinase activity is determined by incubating the enzyme (6.6 μg/ml) with various concentrations of test compound in a 50 mM Hepes buffer, pH=7.2, containing 10 mM MgCl2, 100 μM Na3VO4 and 15 μM d'ATP for 1 hour at 37° C. The enzyme reaction is stopped by adding Hepes buffer, pH=7.0, containing […], 133 mM EDTA and 0.1% BSA, and the labeling is carried out, over 1 to 2 hours at ambient temperature, by adding to this buffer an anti-Histidine antibody labeled with XL665 and a monoclonal antibody phosphospecific for tyrosine, conjugated to europium cryptate (Eu-K). The characteristics of the two fluorophores are available in G. Mathis et al., Anticancer Research, 1997, 17, pages 3011-3014. The transfer of energy from the excited europium cryptate to the XL665 acceptor is proportional to the degree of autophosphorylation of FAK. The long-lived signal specific for XL-665 is measured in a Packard Discovery plate counter. All the assays are carried out in duplicate and the mean of the two assays is calculated. The inhibition of the FAK autophosphorylation activity with compounds of the invention is expressed as percentage inhibition compared to a control whose activity is measured in the absence of test compound. The [signal at 665 nm/signal at 620 nm] ratio is used for the calculation of the % inhibition.
# human KDR enzyme = molecular target: T4, human KDR enzyme (Homo sapiens, UniProt P35968); test: KDR substrate (PLCγ) phosphorylation, scintillation assay; conditions: 10 μM; for inhibition at 10 µM: read-out: KDR % inhib at 10 μM
# T4 construct: The cytoplasmic domain of the human KDR enzyme; GST; made in house; host or cells: SF21 insect cells (baculovirus)
# Description: The inhibitory effect of the compounds is determined in an assay of substrate phosphorylation by the KDR enzyme in vitro using a scintillation technique (96-well plate, NEN).
# The cytoplasmic domain of the human KDR enzyme was cloned in the form of a GST fusion into the baculovirus expression vector pFastBac. The protein was expressed in SF21 cells and purified to approximately 60% homogeneity.
# The KDR kinase activity is measured in 20 mM MOPS, 10 mM MgCl2, 10 mM MnCl2, 1 mM DTT, 2.5 mM EGTA, 10 mM β-glycerophosphate, pH=7.2, in the presence of 10 mM MgCl2, 100 μM Na3VO4, 1 mM NaF. 10 μl of the compound are added to 70 μl of kinase buffer containing 100 ng of KDR enzyme at 4° C. The reaction is triggered by adding 20 μl of solution containing 2 μg of substrate (SH2-SH3 fragment of PLCγ expressed in the form of a GST fusion protein), 2 μCi γ^33P[ATP] and 2 μM cold ATP. After incubation for 1 hour at 37° C., the reaction is stopped by adding 1 volume (100 μl) of 200 mM EDTA. The incubation buffer is removed and the wells are washed three times with 300 μl of PBS. The radioactivity is measured in each well using Top Count NXT radioactivity counter (Packard).
# The background noise is determined by measuring the radioactivity in four different wells containing the radioactive ATP and the substrate alone.
# A control for total activity is measured in four different wells containing all the reagents (γ^33P-[ATP], KDR and PLCγ substrate) but in the absence of compound.
# The inhibition of the KDR activity with the compound of the invention is expressed as percentage inhibition of the control activity determined in the absence of compound.
# The compound SU5614 (Calbiochem) (1 μM) is included in each plate as an inhibition control.
# T4 sequence (P35968 786-1356 limits assumed): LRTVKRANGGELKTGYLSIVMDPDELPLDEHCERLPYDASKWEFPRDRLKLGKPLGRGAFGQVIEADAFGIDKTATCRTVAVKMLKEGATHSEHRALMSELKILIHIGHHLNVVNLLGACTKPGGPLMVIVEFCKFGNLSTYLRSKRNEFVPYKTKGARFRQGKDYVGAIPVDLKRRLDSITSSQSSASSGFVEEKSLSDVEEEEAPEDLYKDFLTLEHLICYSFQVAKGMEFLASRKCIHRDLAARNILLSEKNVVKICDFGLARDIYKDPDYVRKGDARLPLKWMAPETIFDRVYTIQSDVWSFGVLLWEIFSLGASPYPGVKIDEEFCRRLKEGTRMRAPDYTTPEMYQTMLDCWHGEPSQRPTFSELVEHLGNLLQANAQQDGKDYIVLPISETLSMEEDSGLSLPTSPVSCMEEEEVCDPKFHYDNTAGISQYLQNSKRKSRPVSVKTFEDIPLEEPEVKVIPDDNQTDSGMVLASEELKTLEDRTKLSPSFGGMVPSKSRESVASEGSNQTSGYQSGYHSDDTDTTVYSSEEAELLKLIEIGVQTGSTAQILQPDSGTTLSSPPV
# T2 sequence (P08069 960-1367 limits assumed): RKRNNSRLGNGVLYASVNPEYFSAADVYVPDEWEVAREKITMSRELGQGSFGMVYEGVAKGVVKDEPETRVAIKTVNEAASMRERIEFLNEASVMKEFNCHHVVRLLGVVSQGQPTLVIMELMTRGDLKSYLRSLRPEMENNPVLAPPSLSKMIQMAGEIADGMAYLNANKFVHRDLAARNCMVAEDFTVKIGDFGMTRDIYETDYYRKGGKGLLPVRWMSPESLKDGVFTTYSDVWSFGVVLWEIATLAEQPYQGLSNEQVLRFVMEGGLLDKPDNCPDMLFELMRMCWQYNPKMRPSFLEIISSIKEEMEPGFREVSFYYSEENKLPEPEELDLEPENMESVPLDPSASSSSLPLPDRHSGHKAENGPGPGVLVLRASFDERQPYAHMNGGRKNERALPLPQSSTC
# T3 sequence (Q05397 whole entry): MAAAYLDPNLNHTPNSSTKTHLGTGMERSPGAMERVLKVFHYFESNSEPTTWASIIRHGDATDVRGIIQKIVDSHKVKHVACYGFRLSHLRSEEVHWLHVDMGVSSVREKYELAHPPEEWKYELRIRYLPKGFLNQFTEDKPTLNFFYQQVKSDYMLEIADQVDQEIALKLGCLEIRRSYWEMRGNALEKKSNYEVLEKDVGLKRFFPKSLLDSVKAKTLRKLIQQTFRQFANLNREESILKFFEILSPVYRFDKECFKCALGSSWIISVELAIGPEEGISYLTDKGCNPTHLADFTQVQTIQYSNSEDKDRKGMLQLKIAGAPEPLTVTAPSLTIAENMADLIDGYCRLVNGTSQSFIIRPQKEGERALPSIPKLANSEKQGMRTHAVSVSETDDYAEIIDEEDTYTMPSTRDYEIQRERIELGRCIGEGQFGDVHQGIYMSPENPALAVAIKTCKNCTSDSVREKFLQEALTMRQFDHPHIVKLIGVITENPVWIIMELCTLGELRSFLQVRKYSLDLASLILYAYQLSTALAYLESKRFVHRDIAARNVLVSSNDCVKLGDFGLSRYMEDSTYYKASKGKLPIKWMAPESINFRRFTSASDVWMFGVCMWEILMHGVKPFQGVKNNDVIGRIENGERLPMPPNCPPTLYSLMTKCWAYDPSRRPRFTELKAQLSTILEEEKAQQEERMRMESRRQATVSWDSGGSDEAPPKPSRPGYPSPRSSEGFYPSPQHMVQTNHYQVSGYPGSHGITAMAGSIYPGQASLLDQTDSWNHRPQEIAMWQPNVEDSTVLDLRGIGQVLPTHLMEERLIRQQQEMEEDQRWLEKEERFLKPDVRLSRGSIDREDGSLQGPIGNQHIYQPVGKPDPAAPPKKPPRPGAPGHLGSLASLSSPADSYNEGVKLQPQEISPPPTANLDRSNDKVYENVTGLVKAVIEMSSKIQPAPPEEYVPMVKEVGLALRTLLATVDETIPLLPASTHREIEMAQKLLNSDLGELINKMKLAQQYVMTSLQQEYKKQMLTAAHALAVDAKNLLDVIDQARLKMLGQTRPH
Compound,inhibition at 10 µM (Aurora2 kinase) [%],inhibition at 10 µM [1] [%],inhibition at 10 µM (human FAK) [%],inhibition at 10 µM (human KDR enzyme) [%],Aurora2 % inhib at 10 μM (Aurora2 kinase) [%],IGF1R % inhib at 10 μM [1] [%],FAK % inhib at 10 μM (human FAK) [%],KDR % inhib at 10 μM (human KDR enzyme) [%]
"CS(=O)(=O)c1ccccc1S(=O)(=O)Nc1ccc2[nH]nc(C(=O)NC3CCCCC3)c2c1 [Example 29, N-Cyclohexyl-5-(2-methylsulfonylbenzenesulfonylamino)-1H-indazole-3-carboxamide]",80,96,0,8,,,,
"O=S(=O)(Nc1ccc2[nH]nc(-c3ccc(O)cc3)c2c1)c1ccccc1 [Example 34, N-[3-(4-Hydroxyphenyl)-1H-indazol-5-yl]benzenesulfonamide]",100,89,87,96,,,,
"CS(=O)(=O)c1ccccc1S(=O)(=O)Nc1ccc2[nH]nc(-c3ccc(O)cc3)c2c1 [Example 35, N-[3-(4-Hydroxyphenyl)-1H-indazol-5-yl]-2-methylsulfonylbenzenesulfonamide]",,,,,94,94,97,80
"CC(=O)Nc1n[nH]c2ccc(NS(=O)(=O)c3ccccc3S(C)(=O)=O)cc12 [Example 43, N-[5-(2-Methylsulfonylbenzenesulfonylamino)-1H-indazol-3-yl)-acetamide]",85,96,83,25,,,,
"CC(=O)Nc1n[nH]c2ccc(NS(=O)(=O)c3cc(F)cc(F)c3)cc12 [Example 44, N-[5-(3,5-Difluorobenzenesulfonylamino)-1H-indazol-3-yl]acetamide]",,82,95,37,,,,
"CS(=O)(=O)c1ccccc1S(=O)(=O)Nc1ccc2[nH]nc(NC(=O)c3ccccc3)c2c1 [Example 45, N-[5-(2-Methylsulfonylbenzenesulfonylamino)-1H-indazol-3-yl]benzamide]",95,95,100,55,,,,
"O=C(Nc1n[nH]c2ccc(NS(=O)(=O)c3cc(F)cc(F)c3)cc12)c1ccccc1 [Example 46, N-[5-(3,5-Difluorobenzenesulfonylamino)-1H-indazol-3-yl]benzamide]",95,82,90,82,,,,
"CS(=O)(=O)c1ccccc1S(=O)(=O)Nc1ccc2[nH]nc(-c3ccccc3N)c2c1 [Example 49, N-[3-(2-Aminophenyl)-1H-indazol-5-yl]-2-methylsulfonylbenzenesulfonamide]",17,50,40,18,,,,
"CS(=O)(=O)c1ccccc1S(=O)(=O)Nc1ccc2[nH]nc(-c3cc4cccnc4[nH]3)c2c1 [Example 57, 2-Methylsulfonyl-N-[3-(1H-pyrrolo[2,3-b]pyridin-2-yl)-1H-indazol-5-yl]benzenesulfonamide]",53,0,48,22,,,,
"COc1ccc2[nH]c(-c3n[nH]c4ccc(NS(=O)(=O)c5ccccc5S(C)(=O)=O)cc34)cc2c1 [Example 58, 2-Methylsulfonyl-N-[3-(5-methoxy-1H-indol-2-yl)-1H-indazol-5-yl]benzenesulfonamide]",100,100,97,97,,,,
"CS(=O)(=O)c1ccccc1S(=O)(=O)Nc1ccc2[nH]nc(-c3cccnc3)c2c1 [Example 59, 2-Methylsulfonyl-N-(3-pyridin-3-yl-1H-indazol-5-yl)benzenesulfonamide]",100,88,95,40,,,,
"CS(=O)(=O)c1ccccc1S(=O)(=O)Nc1ccc2[nH]nc(-c3ccc(C(=O)O)cc3)c2c1 [Example 69, 4-[5-(2-Methylsulfonylbenzenesulfonamino)-1H-indazol-3-yl]benzoic acid]",99,61,98,73,,,,
